Reference: patent US20100173874A1, “Delivery of modulators of glutamate-mediated neurotransmission to the inner ear” (priority 2002, published 2010)
Entries after “also recorded” stand apart in the source; their conditions may differ.

Legend:
radial dendrites = conditions: intracochlear perfusion ten minutes prior to or concomitant with AMPA perfusion; cited from earlier work
auditory nerve fibers = experiment: Single unit recording of auditory nerve fibers during intracochlear perfusion (salicylate-induced excitation); type: in vivo, guinea pig
Protocol: (§1) Experiments were performed on adult guinea pigs weighing from about 250 g to 300 g. The animals were anaesthetized with urethane (1.4 g/kg, i.p.) and artificially respired. Supplemental doses of urethane (0.35 g/kg, i.p.) were administered every 2 hr, or more often if the animal withdrew its paw in response to pressure applied to the paw. The rectal temperature was maintained at about 38.5±1° C., and heart rate (normal range 260-330 beats/min) monitored using EKG electrodes. The external auditory canal was opened near the tympanic annulus, exposing the tympanic membrane and allowing sound to reach the drum without any obstruction. At the end of the experiment, the animals were euthanized by intracardiac injection of an overdose of sodium pentobarbitone.
Salicylate Tinnitus Model. Salicylate, the active component of aspirin, is of special concern in auditory science because it induces tinnitus in humans. The efficacy of agents to treat tinnitus was tested by measuring firing rate of the auditory nerve fibers in presence of salicylate.
Briefly, the test solutions were applied into the cochlea using a multi-barrel perfusion pipette (ASI Instruments) placed into a hole made in the basal turn scala tympani and allowed to flow out of the cochlea through a hole (0.2 mm diameter) made at the apex. The cochlear nerve was exposed using a posterior fossa approach. Extracellular action potentials from single auditory nerve fibers were recorded with glass microelectrodes. Once a single unit was isolated, spontaneous activity was averaged over 10 seconds. The unit's tuning curves were then determined by a computer-controlled, threshold-tracking program using a 200 ms tone burst presented at 3/s. The threshold criterion was a difference of 10 spikes/s, i.e., 2 spikes difference between the tone (200 ms) and non-tone (200 ms) counting intervals. The program determined the characteristic frequency (CF) and the frequency tuning of the fiber by measuring the Q10dB defined as the CF divided by the bandwidth at 10 dB above the CF threshold.
An experiment was carried out to determine the ability of perfused Glutamate antagonists to suppress salicylate-induced excitation.

inner ear = conditions: acute cochlear perfusion; Wang et al., Neuroscience 2002; cited from earlier work
cochlea [1] = experiment: CAP amplitude after acute intracochlear perfusion; type: in vivo, guinea pig; conditions: 8 kHz tone burst stimulation, mean of 5 animals
Protocol: as §1

cochlea [2] = experiment: CAP amplitude after chronic round window perfusion; type: in vivo, guinea pig; conditions: 8 kHz tone burst stimulation, mean of 5 animals
Protocol: as §1

rats [3] = experiment: Behavioral model of salicylate-induced tinnitus (active avoidance task)
Protocol: To verify that the excitatory action of sodium-salicylate on the auditory nerve fibers results in perception of tinnitus, a behavioral model was designed in rats based upon an active avoidance task. Animals were trained to respond to a conditioned stimulus consisting of a 10 kHz tone burst of 3 s duration.
(§2) CAP threshold shifts were calculated as the difference in dB between the auditory threshold at day 0 and the auditory threshold at each day. To avoid changes due to hearing loss, the intensity of sound eliciting behavioral responses was adjusted as a function of CAP threshold shift.
Gelfoam placed on the round window was used to apply drugs into the fluid of the cochlea.
To support the hypothesis that salicylate induced false positive via cochlear NMDA receptors, we applied other NMDA antagonists into the perilymphatic fluids using gelfoam placed on the round window of both ears.

guinea pigs = conditions: intracochlear perfusion; cited from earlier work
rats [4] = conditions: 300 mg/kg/day i.p. during 4 days; frequency range 2 to 26 KHz
Protocol: CAP thresholds were measured using an electrode chronically implanted on round window in response to a tone burst of 1 ms rise/fall time and 9 ms duration presented at a rate of 10 times per second.
as §2

[5] = intracochlear perfusion, 50 μM, 5 mM NaSal
[6] = 300 mg/kg/day i.p., daily during 4 days

For `O=c1[nH]c2cc([N+](=O)[O-])c([N+](=O)[O-])cc2[nH]c1=O` [DNQX, 6-7-dinitorquinoxaline-2,3-dione], the radial dendrite swelling (radial dendrites) is listed as “prevented most of the occurrence of radial dendrite swelling”.

With `CNC(=O)N1N=C(c2ccc(N)cc2)c2cc3c(cc2C[C@H]1C)OCO3` [GYKI 53784] the “auditory nerve fiber activity evoked by sound” value (auditory nerve fibers; intracochlear perfusion, 50 μM) was “blocked both spontaneous activity and those evoked induced by sodium-salicylate or sound”, the “spontaneous activity of the auditory nerve fiber” value (from here on “spontaneous activity”) (auditory nerve fibers; intracochlear perfusion, 50 μM) was “blocked both the spontaneous and the evoked activity” and the “neural excitation of auditory nerve induced by sodium-salicylate” value (“neural excitation” below) (auditory nerve fibers; [5]) was “blocked both the spontaneous and the evoked activity”.

For `Nc1nc2ccc(OC(F)(F)F)cc2s1` [Riluzole], the “hearing after noise induced hearing loss” value (inner ear) is listed as “rescues hearing after noise induced hearing loss”, the “mean amplitude of the CAP” value (cochlea [1]) is listed as “reduce the CAP amplitude in a dose-dependent manner” and the “mean amplitude of the CAP” value (cochlea [2]) is listed as “reduced the CAP amplitude in the dose dependent manner”.

In the case of `CC1CCCCC1(c1cccs1)N1CCCCC1` (stereo not shown) [gacyclidine, Gacyclidine], the “score under salicylate treatment” value (rats [3]; 50 μM, gelfoam on the round window) is reported as “reduction of the score still been unchanged”, the “spontaneous activity” value (auditory nerve fibers; intracochlear perfusion, 50 μM) is reported as “had no effect on spontaneous activity; also recorded: not the spontaneous activity of the fiber” and the “neural excitation” value (auditory nerve fibers; [5]) is reported as “suppressed neural excitation induced by sodium-salicylate; also recorded: suppressed neural excitation of auditory nerve induced by Na Salicylate”.

For `COc1ccc2c(c1)c(CC(=O)O)c(C)n2C(=O)c1ccc(Cl)cc1` [indomethacin], the “spontaneous activity” value (auditory nerve fibers; intracochlear perfusion, 100 μM in artificial perilymph, fiber coding for 8 kHz) was “did not change the spontaneous activity of the auditory nerve fiber”.

For `O=C(O)c1cc(=O)c2ccccc2[nH]1` [kynurenate], the “protection against sound-induced synaptic damage” value (guinea pigs) is listed as “protects against sound-induced synaptic damage”.

For `O=C([O-])c1ccccc1O.[Na+]` [sodium-salicylate], the “hearing loss (CAP threshold)” value (rats [4]) was 30 dB, the “number of false positives (responses without sound)” value (rats [3]; [6]) was “drastic increase of the number of false positives” and the “score (positive responses to sound, % of total)” value (rats [3]; [6]) was “reversible reduction of the score”. For the same compound, the “score (positive responses to sound)” value (rats [3]; salicylate days 2 to 5, sound intensity adjusted as a function of CAP threshold shift) was “no significant decrease in the score was observed”, the false positive responses (rats [3]; salicylate treatment, sound intensity adjusted as a function of CAP threshold shift) was “false positive responses still remained” and the “spontaneous firing of the auditory nerve fibers” value (auditory nerve fibers; intracochlear application, 5 mM) was “reversibly increased spontaneous firing of the auditory nerve fibers”.

For Dizocilpine [MK 801], the “score under salicylate treatment” value (rats [3]; 10 μM, gelfoam on the round window) was “reduction of the score still been unchanged”, the “number of false positive responses induced by salicylate” value (rats [3]; 10 μM, gelfoam on the round window, day 4 of salicylate treatment, n=10) was “drastically reduced the occurrence of the false positive responses” and the “neural excitation” value (auditory nerve fibers; intracochlear perfusion, 10 μM) was “suppressed neural excitation induced by sodium-salicylate”. For the same compound, the “spontaneous activity” value (auditory nerve fibers; intracochlear perfusion, 10 μM) was “had no effect on spontaneous activity”.
